Measured values taken from US11629171B2, “Beta-hairpin peptidomimetics” (POLYPHOR AG, priority 2017, dated 2023).
In brackets after ≈: the same amount, converted by molar mass. Where a SMILES comes first, the peptide text is derived from it. Bridges are numbered along the chain shown (N, C = ends). Roman numbers before positions name the chains, in order. [ ]: non-standard residue; d: D form. The star is where a group is joined. Thr(ol) = C[C@@H](O)[C@H](N)CO; Tle = CC(C)(C)[C@H](N)C(=O)O; Hiv = CC(C)[C@H](O)C(=O)O; dDab = NCC[C@@H](N)C(=O)O; hSer = N[C@@H](CCO)C(=O)O; Dab = NCC[C@H](N)C(=O)O; Dap = NC[C@H](N)C(=O)O; NHCH2CH2OH = OCCN*

Key:
Type in all cases: cell-based
[1] = tested on: Acinetobacter baumannii 872842; conditions: 872842
Summary of the method: (§1)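 MIC in μg/mL, read as absence of visible growth after 18-20 h incubation at 35° C, by standard CLSI microdilution. Peptides tested in two-fold serial dilution in cation-adjusted MH-II broth containing 0.002% (final) Polysorbate 80, against roughly 10^6 CFU/mL inocula.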

[2] = tested on: Acinetobacter baumannii DSM 30008; conditions: DSM 30008
Summary of the method: as §1

[3] = tested on: Enterobacter cloacae 848840; conditions: 848840
Summary of the method: as §1

[4] = tested on: Escherichia coli 926415; conditions: 926415
Summary of the method: as §1

[5] = tested on: Escherichia coli ATCC 25922; conditions: ATCC 25922
Summary of the method: as §1

[6] = tested on: Klebsiella pneumoniae 968733; conditions: 968733
Summary of the method: as §1

[7] = tested on: Klebsiella pneumoniae SSI #3010; conditions: SSI #3010
Summary of the method: as §1

[8] = tested on: Pseudomonas aeruginosa ATCC 27853; conditions: ATCC 27853
Summary of the method: as §1

[9] = tested on: human red blood cells (hRBC); test: Hemolysis; conditions: red cells of human, 1 h, 200
Summary of the method: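 Hemoglobin release from PBS-washed hRBC at 20% (v/v), incubated 1 h at 37° C with peptides at 200 μg/mL, is measured at 540 nm. Values are blank corrected and given as a fraction of Triton X-100 lysis × 100%.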

Compound	MIC [1]	MIC [2]	MIC [3]	MIC [4]	MIC [5]	MIC [6]	MIC [7]	MIC [8]	Acinetobacter baumannii DSM 30008 MIC [2]	Escherichia coli ATCC 25922 MIC [5]	Klebsiella pneumoniae SSI #3010 MIC [7]	Pseudomonas aeruginosa ATCC 27853 MIC [8]	Hemolysis at 200 μg/mL [9]
CC(=O)N[C@H](C(=O)N[C@H]1CSSC[C@@H](C(=O)N[C@@H](CO)C(N)=O)NC(=O)[C@H](C(C)C)NC(=O)[C@H](CCC(=O)O)NC(=O)[C@H](Cc2c[nH]c3ccccc23)NC(=O)[C@H](CCO)NC(=O)[C@@H](CCN)NC(=O)[C@H](CCC(=O)N[C@@H](CCN)C(=O)N[C@H](C(=O)N[C@@H](CN)C(=O)N[C@H]2CCNC(=O)[C@H]([C@@H](C)O)NC(=O)[C@H](CCN)NC(=O)[C@H](CCN)NC(=O)[C@H](CC(C)C)NC(=O)[C@@H](CC(C)C)NC(=O)[C@H](CCN)NC2=O)[C@@H](C)O)NC(=O)[C@H](CCN)NC(=O)[C@H](Cc2ccc(O)cc2)NC1=O)C(C)C [Ex. 155] (I: Ac-VCY[Dab]E[dDab][hSer]WEVCS-NH2 / II: [Dab]T[Dap][Dab][Dab][dL]L[Dab][Dab]T; disulfide I:2-I:11; amide I:5-II:N; lactam II:4-II:C)	0.125 µg/mL (≈ 0.0509 µM)	0.0625 µg/mL (≈ 0.0255 µM)	0.125 µg/mL (≈ 0.0509 µM)	0.5 µg/mL (≈ 0.204 µM)	0.0625 µg/mL (≈ 0.0255 µM)	0.5 µg/mL (≈ 0.204 µM)	0.125 µg/mL (≈ 0.0509 µM)	0.125 µg/mL (≈ 0.0509 µM)					1%
CC(C)C[C@@H]1NC(=O)[C@@H](CC(C)C)NC(=O)[C@H](CCN)NC(=O)[C@@H](NC(=O)[C@H](CCN)NC(=O)[C@@H](NC(=O)[C@H](CCN)NC(=O)CC[C@@H]2NC(=O)[C@H](CCN)NC(=O)[C@H](Cc3ccc(O)cc3)NC(=O)[C@@H](NC(=O)[C@@H](O)C(C)C)CSSC[C@@H](C(=O)NCCO)NC(=O)[C@H](C(C)(C)C)NC(=O)[C@H](CO)NC(=O)[C@H](Cc3c[nH]c4ccccc34)NC(=O)[C@H](CCO)NC(=O)[C@@H](CCN)NC2=O)[C@@H](C)O)CCNC(=O)[C@H]([C@@H](C)O)NC(=O)[C@H](CCN)NC(=O)[C@H](CCN)NC1=O [Ex. 72] (I: H-[Hiv]CY[Dab]E[dDab][hSer]WS[Tle]C-NHCH2CH2OH / II: [Dab]T[Dab][Dab][Dab][dL]L[Dab][Dab]T; disulfide I:2-I:11; amide I:5-II:N; lactam II:4-II:C)	0.0625 µg/mL (≈ 0.0265 µM)	0.0625 µg/mL (≈ 0.0265 µM)	0.25 µg/mL (≈ 0.106 µM)	0.125 µg/mL (≈ 0.053 µM)	0.0625 µg/mL (≈ 0.0265 µM)	0.125 µg/mL (≈ 0.053 µM)	0.125 µg/mL (≈ 0.053 µM)	0.125 µg/mL (≈ 0.053 µM)					<1%
CC(C)C[C@@H]1NC(=O)[C@@H](CC(C)C)NC(=O)[C@H](CCN)NC(=O)[C@@H](NC(=O)[C@H](CCN)NC(=O)[C@H](CO)NC(=O)[C@H](CCN)NC(=O)CC[C@@H]2NC(=O)[C@H](CCN)NC(=O)[C@H](Cc3ccc(O)cc3)NC(=O)[C@@H](NC(=O)[C@@H](O)C(C)C)CSSC[C@@H](C(=O)N[C@H](CO)[C@@H](C)O)NC(=O)[C@H](C(C)(C)C)NC(=O)[C@H](CO)NC(=O)[C@H](Cc3c[nH]c4ccccc34)NC(=O)[C@H](CCO)NC(=O)[C@@H](CCN)NC2=O)CCNC(=O)[C@H]([C@@H](C)O)NC(=O)[C@H](CCN)NC(=O)[C@H](CCN)NC1=O [Ex. 60] (I: H-[Hiv]CY[Dab]E[dDab][hSer]WS[Tle]C[Thr(ol)] / II: [Dab]S[Dab][Dab][Dab][dL]L[Dab][Dab]T; disulfide I:2-I:11; amide I:5-II:N; lactam II:4-II:C)	0.125 µg/mL (≈ 0.0524 µM)	0.0625 µg/mL (≈ 0.0262 µM)	4 µg/mL (≈ 1.68 µM)	0.125 µg/mL (≈ 0.0524 µM)	0.0625 µg/mL (≈ 0.0262 µM)	0.125 µg/mL (≈ 0.0524 µM)	0.125 µg/mL (≈ 0.0524 µM)	0.125 µg/mL (≈ 0.0524 µM)					<1%
CC(=O)N[C@@H](CC(C)C)C(=O)N[C@H]1CSSC[C@@H](C(=O)N[C@@H](CO)C(N)=O)NC(=O)[C@H](C(C)C)NC(=O)[C@H](CCN)NC(=O)[C@H](Cc2c[nH]c3ccccc23)NC(=O)[C@H](CCN)NC(=O)[C@@H](CCN)NC(=O)[C@H](CCC(=O)N[C@@H](CCN)C(=O)N[C@H](C(=O)N[C@@H](CN)C(=O)N[C@H]2CCNC(=O)[C@H]([C@@H](C)O)NC(=O)[C@H](CCN)NC(=O)[C@H](CCN)NC(=O)[C@H](CC(C)C)NC(=O)[C@@H](CC(C)C)NC(=O)[C@H](CCN)NC2=O)[C@@H](C)O)NC(=O)[C@H](CCN)NC(=O)[C@H](Cc2ccc(O)cc2)NC1=O [Ex. 353] (I: Ac-LCY[Dab]E[dDab][Dab]W[Dab]VCS-NH2 / II: [Dab]T[Dap][Dab][Dab][dL]L[Dab][Dab]T; disulfide I:2-I:11; amide I:5-II:N; lactam II:4-II:C)	4 µg/mL (≈ 1.64 µM)		8 µg/mL (≈ 3.28 µM)	0.25 µg/mL (≈ 0.103 µM)		4 µg/mL (≈ 1.64 µM)			1 µg/mL	0.125 µg/mL	0.125 µg/mL	0.25 µg/mL	<1%

Now from value to compound, other results behind:

MIC [1]	MIC [2]	MIC [3]	MIC [4]	MIC [5]	MIC [6]	MIC [7]	MIC [8]	Acinetobacter baumannii DSM 30008 MIC [2]	Escherichia coli ATCC 25922 MIC [5]	Klebsiella pneumoniae SSI #3010 MIC [7]	Pseudomonas aeruginosa ATCC 27853 MIC [8]	Compound	Hemolysis at 200 μg/mL [9]
8 µg/mL (≈ 3.42 µM)	0.125 µg/mL (≈ 0.0534 µM)	2 µg/mL (≈ 0.854 µM)	4 µg/mL (≈ 1.71 µM)	0.125 µg/mL (≈ 0.0534 µM)	4 µg/mL (≈ 1.71 µM)	0.125 µg/mL (≈ 0.0534 µM)	0.25 µg/mL (≈ 0.107 µM)					CC(=O)N[C@H](C(=O)N[C@H](C(=O)N[C@@H](Cc1ccc(O)cc1)C(=O)N[C@H]1CSSC[C@@H](C(=O)N[C@H](C(=O)N[C@@H](CO)C(N)=O)C(C)C)NC(=O)[C@H](Cc2c[nH]c3ccccc23)NC(=O)[C@H](CCO)NC(=O)[C@@H](CCN)NC(=O)[C@H](CCC(=O)N[C@@H](CCN)C(=O)N[C@H](C(=O)N[C@@H](CCN)C(=O)N[C@H]2CCNC(=O)[C@H]([C@@H](C)O)NC(=O)[C@H](CCN)NC(=O)[C@H](CCN)NC(=O)[C@H](CC(C)C)NC(=O)[C@@H](CC(C)C)NC(=O)[C@H](CCN)NC2=O)[C@@H](C)O)NC1=O)[C@@H](C)O)C(C)C [Example 11] (I: Ac-VTYCE[dDab][hSer]WCVS-NH2 / II: [Dab]T[Dab][Dab][Dab][dL]L[Dab][Dab]T; disulfide I:4-I:9; amide I:5-II:N; lactam II:4-II:C)	1%
0.25 µg/mL (≈ 0.106 µM)		0.125 µg/mL (≈ 0.0531 µM)	0.5 µg/mL (≈ 0.212 µM)		0.5 µg/mL (≈ 0.212 µM)			0.0625 µg/mL	0.0625 µg/mL	0.125 µg/mL	0.25 µg/mL	CC(=O)N[C@H](C(=O)N[C@H]1CSSC[C@@H](C(=O)N[C@@H](CO)C(N)=O)NC(=O)[C@H](C(C)C)NC(=O)[C@H](CO)NC(=O)[C@H](Cc2c[nH]c3ccccc23)NC(=O)[C@H](CCC(=O)N[C@@H](CCN)C(=O)N[C@H](C(=O)N[C@@H](CN)C(=O)N[C@H]2CCNC(=O)[C@H]([C@@H](C)O)NC(=O)[C@H](CCN)NC(=O)[C@H](CCN)NC(=O)[C@H](CC(C)C)NC(=O)[C@@H](CC(C)C)NC(=O)[C@H](CCN)NC2=O)[C@@H](C)O)NC(=O)[C@@H](CCN)NC(=O)CNC(=O)[C@H](CO)NC(=O)[C@H](Cc2ccc(O)cc2)NC1=O)C(C)C [Ex. 357] (I: Ac-VCYSG[dDab]EWSVCS-NH2 / II: [Dab]T[Dap][Dab][Dab][dL]L[Dab][Dab]T; disulfide I:2-I:11; amide I:7-II:N; lactam II:4-II:C)	<1%
